{"source": "paper PMC6934184", "about": "“Selective DNA-PKcs inhibition extends the therapeutic index of localized radiotherapy and chemotherapy” (The Journal of Clinical Investigation, 2019)", "target": "T1, DYRK3 (Homo sapiens, UniProt O43781)", "T1 construct": "purchased Thermo Fisher Scientific (Life Technologies) SelectScreen", "T1 sequence (O43781 whole entry)": "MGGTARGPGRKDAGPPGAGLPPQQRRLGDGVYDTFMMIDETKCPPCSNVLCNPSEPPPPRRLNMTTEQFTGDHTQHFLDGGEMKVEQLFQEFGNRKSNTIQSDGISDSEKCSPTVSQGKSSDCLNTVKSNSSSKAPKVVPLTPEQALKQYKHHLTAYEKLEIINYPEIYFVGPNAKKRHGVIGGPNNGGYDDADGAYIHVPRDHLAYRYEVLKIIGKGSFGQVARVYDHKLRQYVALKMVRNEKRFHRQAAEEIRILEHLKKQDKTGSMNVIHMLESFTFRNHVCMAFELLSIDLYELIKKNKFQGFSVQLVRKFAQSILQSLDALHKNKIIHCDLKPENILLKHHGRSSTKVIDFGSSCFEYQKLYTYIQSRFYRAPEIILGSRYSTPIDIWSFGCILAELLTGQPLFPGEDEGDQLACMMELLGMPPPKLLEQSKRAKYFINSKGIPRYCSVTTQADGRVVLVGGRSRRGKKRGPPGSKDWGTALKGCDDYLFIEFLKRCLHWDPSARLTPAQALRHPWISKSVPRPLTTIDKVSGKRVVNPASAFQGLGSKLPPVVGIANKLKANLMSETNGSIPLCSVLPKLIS", "assay": "SelectScreen Z'LYTE", "type": "biochemical", "summary_of_the_method": "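SelectScreen broad panel; activity (Z'LYTE, Adapta) plus binding formats. ATP: Km app for CSF1R Z'LYTE; 10 for CAMK1 Adapta. Readout = % per kinase.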"}
{"smiles": "CN(C(=O)CN1CCOCC1)c1ccc2sc3c(-c4cccc5c(=O)cc(N6CC7CCC(C6)O7)oc45)cccc3c2c1", "note": "[NU5455]", "values": [{"measurement": "inhibition at 1 µM", "value": 2.6, "unit": "%"}]}
